Test results from US7199113B2, “Pharmaceutically active compounds and methods of use thereof” (priority 1998, dated 2007).

Experiments:
Assay type in all cases: biochemical
[1] = molecular target: T1, TF/VIIa complex (Homo sapiens, UniProt P13726); assay: TF/VIIa-dependent FIX activation assay; conditions: for blocking activity in standard assay for TF/VIIa-dependent factor IX activation: statement on FIG. 3; for inhibition of TF/VIIa-dependent FIX activation: statement on Table 4 (FIG. 2(d))
T1 construct: Truncated recombinant human tissue factor (e.g. composed of 243 amino acids) is expressed in E. coli; host or cells: E. coli (TF)
Procedure: In a more particular embodiment, the standard assay preferably includes the following steps: • 1) admixing in a suitable assay solution about 0.7 nM TF/VIIa complex with 300 nM factor IX and 1000 nM factor X, and from between about 0.5 μl to about 10 μl of at least one compound to be tested (optionally dissolved in an appropriate vehicle such as water or dimethylsulfoxide (DMSO)) and incubating the solution at 37° C. from between about a few minutes up to about an hour under conditions suitable for forming FIXa and FXa; • 2) contacting the solution with a suitable chelating agent such as EDTA to stop FIX activation; • 3) contacting the solution with a chromogenic substrate specific for the FXa (e.g., Spectrozyme FXa) and incubating same at 37° C.; and • 4) detecting chromophore in the solution as being indicative of the factor IX activation.
TF/VIIa is not only able to activate FX, but is also able to convert FIX to FIXa. To examine whether the two antagonists 1 and 2 were able to block FIX activation catalyzed by TF/VIIa. FIX activation experiment was conducted. To each well of a 96-well plate, 5 μl of diluted DMSO or compound was added, followed by 45 μl of TF/VIIa (0.67 nM). After mixing and incubating for 15 minutes at 37° C., 10 μl of FIX (300 nM) was added and incubated for 10 minutes at 37° C. 10 μl of EDTA ([…] in 144 mM HEPES, […], 0.576% BSA, pH adjusted to 7.5) was added, followed by addition of 10 μl of FX (1000 nM), 10 μl of polylysine, and 10 μl of Spectrozyme FXa (6 mM). After 3 hour incubation at 37° C., absorbance at 405 nm was measured following addition of 20 μl of 50% acetic acid. The percent inhibition of TF/VIIa-dependent FIX activation was calculated from OD405 nm values in the absence and presence of a compound.

[2] = tested on: trypsin; assay: Trypsin activity assay; conditions: statement on Table 1 (FIG. 2(a))
Procedure: For trypsin activity assay, 4 μl of trypsin (100 nM) was first mixed with 61 μl of buffer, 5 μl of DMSO or 5 μl of compound (in DMSO), followed by 15 minute incubation at 37° C. Then 10 μl of substrate S-2222 (4.8 mM) was added to start the reaction. After a 15 minute incubation at 37° C., 20 μl of 50% acetic acid was added to quench the reaction. Absorbance at 405 nm was then measured and the percent inhibition of trypsin activity was calculated from OD405 nm values in the absence and presence of a compound.

[3] = molecular target: Russell's viper venom (RVV) (Daboia siamensis, UniProt Q7LZ61)
Chain of Russell's viper venom (RVV) (Q7LZ61 whole entry, looked up): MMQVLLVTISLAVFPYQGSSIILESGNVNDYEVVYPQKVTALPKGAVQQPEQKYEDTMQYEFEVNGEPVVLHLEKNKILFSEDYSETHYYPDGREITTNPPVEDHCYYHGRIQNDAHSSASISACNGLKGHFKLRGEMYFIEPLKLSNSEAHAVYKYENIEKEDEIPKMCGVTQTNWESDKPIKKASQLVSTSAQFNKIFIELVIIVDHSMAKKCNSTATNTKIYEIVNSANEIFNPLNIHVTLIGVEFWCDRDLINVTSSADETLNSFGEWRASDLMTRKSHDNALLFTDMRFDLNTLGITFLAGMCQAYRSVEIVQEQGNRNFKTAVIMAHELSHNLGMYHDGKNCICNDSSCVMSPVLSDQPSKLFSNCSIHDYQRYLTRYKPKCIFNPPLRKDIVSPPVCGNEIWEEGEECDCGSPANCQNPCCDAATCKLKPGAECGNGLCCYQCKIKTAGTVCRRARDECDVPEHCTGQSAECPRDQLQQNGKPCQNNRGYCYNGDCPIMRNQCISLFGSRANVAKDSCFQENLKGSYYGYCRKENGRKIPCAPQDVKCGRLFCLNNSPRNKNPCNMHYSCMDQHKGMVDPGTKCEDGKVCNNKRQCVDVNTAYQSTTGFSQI

T1 sequence (P13726 33-275 limits assumed): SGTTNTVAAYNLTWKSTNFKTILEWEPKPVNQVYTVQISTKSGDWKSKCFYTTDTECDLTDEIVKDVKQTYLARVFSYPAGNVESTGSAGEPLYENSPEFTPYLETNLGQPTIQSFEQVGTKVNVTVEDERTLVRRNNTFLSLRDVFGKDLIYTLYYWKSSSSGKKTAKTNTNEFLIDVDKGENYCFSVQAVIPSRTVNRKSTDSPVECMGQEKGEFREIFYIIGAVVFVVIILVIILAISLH
T1 sequence (P08709 61-212 partner limits assumed): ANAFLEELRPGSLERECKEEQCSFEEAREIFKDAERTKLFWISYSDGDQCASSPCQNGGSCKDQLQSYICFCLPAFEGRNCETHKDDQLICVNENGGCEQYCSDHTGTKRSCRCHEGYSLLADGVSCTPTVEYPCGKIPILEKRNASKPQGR
T1 sequence (P08709 213-466 partner limits assumed): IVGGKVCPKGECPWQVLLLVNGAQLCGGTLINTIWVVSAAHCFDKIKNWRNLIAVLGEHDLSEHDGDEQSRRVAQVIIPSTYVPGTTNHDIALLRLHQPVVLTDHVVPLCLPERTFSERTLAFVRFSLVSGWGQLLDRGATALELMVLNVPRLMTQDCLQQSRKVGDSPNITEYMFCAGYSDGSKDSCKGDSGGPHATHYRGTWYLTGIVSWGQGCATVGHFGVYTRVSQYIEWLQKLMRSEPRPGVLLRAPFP

Row | Compound | blocking activity in standard assay for TF/VIIa-dependent factor IX activation [1] | inhibition of TF/VIIa-dependent FIX activation [1] | inhibition of trypsin activity [2] | inhibition of RVV-dependent FX activation [3]
1 | O=P(O)(O)C(CNc1cccc(O)c1)P(=O)(O)O [Compound 1, 1-(bisphosponate)-2-amino(3-hydroxyphenyl)ethyl] | good blocking activity | inhibit TF/VIIa-dependent FIX activation | do not inhibit trypsin activity | do not inhibit RVV catalytic activity
2 | O=P(O)(O)C(CNc1ccc(O)cc1)P(=O)(O)O [Compound 2] | good blocking activity | inhibit TF/VIIa-dependent FIX activation | do not inhibit trypsin activity | do not inhibit RVV catalytic activity
